Values quoted from earlier work as cited in US20070093969A1, “Molecular nephrotoxicology modeling” (priority 2002, published 2007).

What was measured:
rabbits = settings: rabbit, in vivo; cited from earlier work
mice = settings: single dose; cited from earlier work
[1] = test system: angiotensin converting enzyme (ACE); settings: 20, 25, and 30 days post-treatment; cited from earlier work
rats = settings: rat, in vivo; cited from earlier work
human population = settings: in vivo; cited from earlier work
patients = settings: four HIV-positive patients; cited from earlier work

SMILES: COc1cccc2c1C(=O)c1c(O)c3c(c(O)c1C2=O)C[C@@](O)(C(=O)CO)C[C@@H]3O[C@H]1C[C@H](N)[C@H](O)[C@H](C)O1 [adriamycin, Adriamycin]
- nephrotoxicity (rabbits): signs of nephrotoxicity at relatively low doses
- renal signs (mice): combined glomerular albuminuria and immunoglublinuria
- serum ACE levels [1]: significantly elevated

SMILES: [Li] [lithium, Lithium]
- urine output (rats): marked polyuria
- patients who proceeded to end-stage renal disease (human population): seven
- patients with nephrogenic diabetes insipidus (NDI) (human population): ~90%
- patients with nephrotic proteinuria (human population): Approximately one fourth

SMILES: Nc1ccc(S(=O)(=O)Nc2ncccn2)cc1 [sulfadiazine, Sulfadiazine]
- patients who developed oliguria, abdominal pain, renal failure (patients): All four
